Test: solvent given as SMILES
Settings: in CN(C)C=O

Row | Compound | emission maximum
1 | Cc1ccc(C2CC(c3ccc(O)cc3)=NN2c2ccc(S(N)(=O)=O)cc2)cc1 (stereo not drawn) | 422 nm
2 | CCCCCCCCCCCCCCCCCCN1C(=O)c2ccc3c4ccc5c6c(ccc(c7ccc(c2c37)C1=O)c64)C(=O)N(CCCCCCCCCCCCCCCCCC)C5=O | 535 nm
3 | CC(C)(C)c1ccc(-c2c3ccccc3c3n2[B-](F)(F)[N+]2=Cc4c5ccccc5c(-c5ccc(C(C)(C)C)cc5)n4[B-](F)(F)[N+]2=C3)cc1 | 607 nm
4 | CC(C)(C)c1ccc2c(c1)c1cc(C(C)(C)C)ccc1n2-c1cccc(-c2nc(-c3cccc(-n4c5ccc(C(C)(C)C)cc5c5cc(C(C)(C)C)ccc54)c3)nc(-c3cccc(P(=O)(c4ccccc4)c4ccccc4)c3)n2)c1 | 532.99 nm
5 | CC(C)(C)c1ccc(-c2nc3c4ccc(-c5cccc6ccccc56)cc4c4cc(-c5cccc6ccccc56)ccc4c3n2-c2ccc(C(C)(C)C)cc2)cc1 | 394 nm
6 | CCN(CC)c1ccc2cc(/C=C/C3=CC(/C=C/c4cc5ccc(N(CC)CC)cc5oc4=O)=[O+][B-](F)(F)O3)c(=O)oc2c1 | 729 nm
7 | CN(C)/C=N\c1ccc2c3c(cccc13)C(=O)c1ccccc1-2 | 624 nm
8 | O=C1Nc2ccccc2/C1=C/C(=O)c1ccc(O)cc1 | 401 nm

Same assay, conditions: in CO

Row | emission maximum | Compound
9 | 432 nm | Cc1ccc(C2CC(c3ccc(O)cc3)=NN2c2ccc(S(N)(=O)=O)cc2)cc1 (stereo not drawn)
10 | 380 nm | C[Si](C)(C)c1ccc2ccc3c([Si](C)(C)C)ccc4ccc1c2c43
11 | 456 nm | CN(C)c1ncc2nc(C#N)n(Cc3ccccc3)c2n1
12 | 448 nm | C1=CC2=Nc3cccc[n+]3CN2C=C1
13 | 432 nm | COC(=O)c1c2ccccc2nc2ccccc12
14 | 408 nm | O=C1Nc2ccccc2/C1=C/C(=O)c1ccc(O)cc1

Row | Compound | emission maximum
15 | CN(C)/C=N\c1ccc2c3c(cccc13)C(=O)c1ccccc1-2 | 638 nm
16 | COc1ccc(/C=C2\OC(=O)c3ccccc32)cc1 | 459.35 nm
17 | COc1nc(Cl)nc(Nc2ccc3c4c(cccc24)C(=O)c2ccccc2-3)n1 | 578.03 nm

Same assay, conditions: in COCCOC

Row | emission maximum | Compound
18 | 420 nm | COC(=O)c1c2ccccc2nc2ccccc12

Same assay, conditions: in CS(C)=O

Row | emission maximum | Compound
19 | 424 nm | Cc1ccc(C2CC(c3ccc(O)cc3)=NN2c2ccc(S(N)(=O)=O)cc2)cc1 (stereo not drawn)
20 | 641 nm | C(=C\c1ncnc2ccccc12)/c1ccc(-c2ccc(N(c3ccccc3)c3ccccc3)cc2)cc1
21 | 622 nm | CN(C)c1ccc(/C=C/c2cnc3ccccc3n2)cc1

Row | Compound | emission maximum
22 | CCN(CC)c1ccc2cc(/C=C/C3=CC(/C=C/c4cc5ccc(N(CC)CC)cc5oc4=O)=[O+][B-](F)(F)O3)c(=O)oc2c1 | 741 nm

Same assay, conditions: in Cc1ccccc1

Row | Compound | emission maximum
23 | CC(C)(C)c1ccc(-c2c3ccccc3c3n2[B-](F)(F)[N+]2=Cc4c5ccccc5c(-c5ccc(C(C)(C)C)cc5)n4[B-](F)(F)[N+]2=C3)cc1 | 611 nm
24 | CC(C)(C)c1ccc2c(c1)c1cc(C(C)(C)C)ccc1n2-c1cccc(-c2nc(-c3cccc(-n4c5ccc(C(C)(C)C)cc5c5cc(C(C)(C)C)ccc54)c3)nc(-c3cccc(P(=O)(c4ccccc4)c4ccccc4)c3)n2)c1 | 481.21 nm
25 | CC(C)(C)c1ccc(-c2nc3c4ccc(-c5cccc6ccccc56)cc4c4cc(-c5cccc6ccccc56)ccc4c3n2-c2ccc(C(C)(C)C)cc2)cc1 | 385 nm
26 | Cc1cc(-c2nc(-c3ccccc3)nc(-c3ccccc3)n2)ccc1-n1c2ccccc2c2cc3c(cc21)C1c2ccccc2C3c2ccccc21 | 431 nm
27 | O=C1c2ccc(-c3ccc(N(c4ccccc4)c4ccccc4)cc3)cc2C(=O)c2ccc(-c3ccc(N(c4ccccc4)c4ccccc4)cc3)cc21 | 597 nm
28 | CCN(CC)c1ccc2cc(/C=C/C3=CC(/C=C/c4cc5ccc(N(CC)CC)cc5oc4=O)=[O+][B-](F)(F)O3)c(=O)oc2c1 | 626 nm
29 | CN(C)/C=N\c1ccc2c3c(cccc13)C(=O)c1ccccc1-2 | 551 nm
30 | COc1ccc(C2=C(c3ccc(F)cc3)C(c3ccccc3)=[N+]3C2=Nc2c(-c4ccc(OC)cc4)c(-c4ccc(F)cc4)c(-c4ccccc4)n2[B-]3(F)F)cc1 | 692 nm
31 | COc1nc(Cl)nc(Nc2ccc3c4c(cccc24)C(=O)c2ccccc2-3)n1 | 518.13 nm

Same assay, conditions: in ClC(Cl)(Cl)Cl

Row | Compound | emission maximum
32 | CN(C)/C=N\c1ccc2c3c(cccc13)C(=O)c1ccccc1-2 | 540 nm

Same assay, conditions: in ClC(Cl)Cl

Row | emission maximum | Compound
33 | 437 nm | O=C1CC(c2ccc(F)cc2)c2c(c3ccccc3c3nc4ccccc4nc23)O1 (stereo not drawn)
34 | 434 nm | O=C1CC(c2ccc(Cl)cc2)c2c(c3ccccc3c3nc4ccccc4nc23)O1 (stereo not drawn)
35 | 428 nm | COC(=O)c1c2ccccc2nc2ccccc12
36 | 451 nm | CC(C)(C)n1c(=O)c2cc3ccc4cccc5ccc(c2c1=O)c3c45
37 | 536 nm | Cc1cc(C)c(B(c2c(C)cc(C)cc2C)c2cc3cc(N(C)C)c4ccccc4c3c3c2ccc2ccccc23)c(C)c1
38 | 415 nm | CCCCn1c2ccc(-c3ccc(OC)cc3)cc2c2ccc3c4cc(-c5ccc(OC)cc5)ccc4n(CCCC)c3c21

Row | Compound | emission maximum
39 | CC(C)(C)c1ccc2c(c1)c1cc(C(C)(C)C)ccc1n2-c1cccc(-c2nc(-c3cccc(-n4c5ccc(C(C)(C)C)cc5c5cc(C(C)(C)C)ccc54)c3)nc(-c3cccc(P(=O)(c4ccccc4)c4ccccc4)c3)n2)c1 | 511.48 nm
40 | CCN(CC)c1ccc2cc(/C=C/C3=CC(/C=C/c4cc5ccc(N(CC)CC)cc5oc4=O)=[O+][B-](F)(F)O3)c(=O)oc2c1 | 669 nm
41 | CN(C)/C=N\c1ccc2c3c(cccc13)C(=O)c1ccccc1-2 | 575 nm

Same assay, conditions: in ClC=C(Cl)Cl

Row | Compound | emission maximum
42 | CC(C)(C)c1ccc(-c2nc3c4ccc(-c5cccc6ccccc56)cc4c4cc(-c5cccc6ccccc56)ccc4c3n2-c2ccc(C(C)(C)C)cc2)cc1 | 386 nm

Same assay, conditions: in ClCCl

Row | emission maximum | Compound
43 | 610 nm | C(=C\c1ncnc2ccccc12)/c1ccc(-c2ccc(N(c3ccccc3)c3ccccc3)cc2)cc1
44 | 585 nm | COc1ccccc1-c1c2ccc(=[N+]3CCCCC3)cc-2oc2cc(N3CCCCC3)ccc12
45 | 381 nm | C[Si](C)(C)c1ccc2ccc3c([Si](C)(C)C)ccc4ccc1c2c43
46 | 348 nm | Cn1nc(-c2ccc(C#N)cc2)cc1-c1ccccc1
47 | 429 nm | CN(C)c1ncc2nc(C#N)n(Cc3ccccc3)c2n1
48 | 423 nm | O=P1(c2ccccc2)C(c2ccccc2)=Cc2ccccc21 (stereo not drawn)
49 | 411 nm | CCCCn1c2ccccc2c2ccc(C#Cc3ccc4ccc5cccc6ccc3c4c56)cc21
50 | 458 nm | CCCCC(CC)Cn1c2cc(C#N)ccc2c2ccc(C#Cc3ccc4ccc5ccc(C#Cc6ccc7c8ccc(C#N)cc8n(CC(CC)CCCC)c7c6)c6ccc3c4c56)cc21 (stereo not drawn)
51 | 429 nm | c1ccc(-c2cc3cc4ccccc4cc3p2-c2ccccc2)cc1 (stereo not drawn)
52 | 420 nm | F[B-]1(F)OC(C#Cc2ccccc2)=CC(c2ccccc2)=[O+]1
53 | 548 nm | [O-][n+]1c(-c2ccccc2)cc(N2CCOCC2)nc1/C=C/c1ccccc1
54 | 570 nm | CN(C)c1ccc(/C=C/c2cnc3ccccc3n2)cc1
55 | 422 nm | COC(=O)c1c2ccccc2nc2ccccc12
56 | 645 nm | C1=C2C3=C(C4=[N+]2[B-]2(Oc5ccccc54)Oc4ccccc4-c4c5c(c1n42)C1CCC5CC1)C1CCC3CC1 (stereo not drawn)
57 | 540 nm | CSc1nccc(/C=C/c2ccc(N(c3ccccc3)c3ccc(/C=C/c4ccnc(SC)n4)cc3)cc2)n1
58 | 400 nm | O=C1Nc2ccccc2/C1=C/C(=O)c1ccc(O)cc1
59 | 443 nm | c1cncc(-c2ccc(-c3c4ccc(-c5cccnc5)cc4c(-c4ccc(-c5cccnc5)cc4)c4ccc(-c5cccnc5)cc34)cc2)c1

Row | Compound | emission maximum
60 | CC(C)(C)c1ccc(-c2c3ccccc3c3n2[B-](F)(F)[N+]2=Cc4c5ccccc5c(-c5ccc(C(C)(C)C)cc5)n4[B-](F)(F)[N+]2=C3)cc1 | 608 nm
61 | CC(C)(C)c1ccc2c(c1)c1cc(C(C)(C)C)ccc1n2-c1cccc(-c2nc(-c3cccc(-n4c5ccc(C(C)(C)C)cc5c5cc(C(C)(C)C)ccc54)c3)nc(-c3cccc(P(=O)(c4ccccc4)c4ccccc4)c3)n2)c1 | 532.99 nm
62 | CC(C)(C)c1ccc(-c2nc3c4ccc(-c5cccc6ccccc56)cc4c4cc(-c5cccc6ccccc56)ccc4c3n2-c2ccc(C(C)(C)C)cc2)cc1 | 388 nm
63 | CCN(CC)c1ccc2cc(/C=C/C3=CC(/C=C/c4cc5ccc(N(CC)CC)cc5oc4=O)=[O+][B-](F)(F)O3)c(=O)oc2c1 | 705 nm
64 | CN(C)/C=N\c1ccc2c3c(cccc13)C(=O)c1ccccc1-2 | 593 nm

Same assay, conditions: in Clc1ccccc1

Row | Compound | emission maximum
65 | COc1nc(Cl)nc(Nc2ccc3c4c(cccc24)C(=O)c2ccccc2-3)n1 | 524.93 nm

Same assay, conditions: in N#Cc1ccccc1

Row | Compound | emission maximum
66 | COc1nc(Cl)nc(Nc2ccc3c4c(cccc24)C(=O)c2ccccc2-3)n1 | 526.04 nm

Same assay, conditions: in O

Row | emission maximum | Compound
67 | 449 nm | Cc1ccc(C2CC(c3ccc(O)cc3)=NN2c2ccc(S(N)(=O)=O)cc2)cc1 (stereo not drawn)
68 | 530 nm | CN(C)c1ccc2cc3ccc(N(C)C)cc3nc2c1
69 | 424 nm | O=C1Nc2ccccc2/C1=C/C(=O)c1ccc(O)cc1

Same assay, conditions: in O=C1CCCCC1

Row | Compound | emission maximum
70 | COc1nc(Cl)nc(Nc2ccc3c4c(cccc24)C(=O)c2ccccc2-3)n1 | 524.11 nm

Same assay, conditions: in O=P(c1ccccc1)(c1ccccc1)c1ccccc1Oc1ccccc1P(=O)(c1ccccc1)c1ccccc1

Row | Compound | emission maximum
71 | CC(C)(C)c1ccc2c(c1)c1cc(C(C)(C)C)ccc1n2-c1cccc(-c2nc(-c3cccc(-n4c5ccc(C(C)(C)C)cc5c5cc(C(C)(C)C)ccc54)c3)nc(-c3cccc(P(=O)(c4ccccc4)c4ccccc4)c3)n2)c1 | 484 nm
72 | Cc1cc(-c2nc(-c3ccccc3)nc(-c3ccccc3)n2)ccc1-n1c2ccccc2c2cc3c(cc21)C1c2ccccc2C3c2ccccc21 | 451 nm

Same assay, conditions: in OCCO

Row | emission maximum | Compound
73 | 418 nm | COC(=O)c1c2ccccc2nc2ccccc12

Same assay, conditions: in c1cc(-c2cccc(-n3c4ccccc4c4ccccc43)c2)cc(-n2c3ccccc3c3ccccc32)c1

Row | Compound | emission maximum
74 | N#Cc1cc(-n2c3ccccc3c3ccccc32)c(C#N)cc1-n1c2ccccc2c2ccccc21 | 370 nm

Same assay, conditions: in c1ccc2c(c1)c1ccccc1n2-c1ccc(-c2ccc(-n3c4ccccc4c4ccccc43)cc2)cc1

Row | Compound | emission maximum
75 | O=C1c2ccc(-c3ccc(N(c4ccccc4)c4ccccc4)cc3)cc2C(=O)c2ccc(-c3ccc(N(c4ccccc4)c4ccccc4)cc3)cc21 | 594 nm

Same assay, conditions: in c1ccc2c(c1)c1ccccc1n2P1(n2c3ccccc3c3ccccc32)=NP(n2c3ccccc3c3ccccc32)(n2c3ccccc3c3ccccc32)=NP(n2c3ccccc3c3ccccc32)(n2c3ccccc3c3ccccc32)=N1

Row | Compound | emission maximum
76 | N#Cc1cc(-n2c3ccccc3c3ccccc32)c(C#N)cc1-n1c2ccccc2c2ccccc21 | 370 nm

Same assay, conditions: in c1ccccc1

Row | Compound | emission maximum
77 | CN(C)/C=N\c1ccc2c3c(cccc13)C(=O)c1ccccc1-2 | 550 nm
78 | Cc1cc(C)c(B(c2c(C)cc(C)cc2C)c2cc3cc(N(C)C)c4ccccc4c3c3c2ccc2ccccc23)c(C)c1 | 539 nm
